Structures can show the parent of a compound that is named as a salt. Where two headings read alike, the source gives them in different places. Where a SMILES comes first, the peptide text is derived from it. Bridges are numbered along the chain shown (N, C = ends). [ ]: non-standard residue; d: D form. The star is where a group is joined. X1 = CC[C@H](C)CCCCC(=O)*; Dab = NCC[C@H](N)C(=O)O
Tests used:
[1] = tested on: fibrin- and LPS-induced microglia activation; assay: cells; format: cell-based, rat; conditions: for Hit: HTS hit classification
primary rat microglia [2] = assay: Cell toxicity (dead cells, size <150 μm2) in LPS assay; conditions: for IC50: read-out: Cell Toxicity IC50 (uM) [LPS assay]; for LPS % cell toxicity: primary microglia HTS, LPS stimulation, decreased size (<150 μm^2) as marker of toxicity
[3] = tested on: fibrin-induced microglia activation; assay: Image-based assay of fibrin-induced microglia activation (HTS and dose response); format: cell-based, rat; conditions: for Fibrin % inhibition / inhibition at 10 µM: primary microglia HTS, fibrin stimulation; for inhibition at 10 µM: Rattus norvegicus, Microglia, read-out: Fibrin % inhibition
[4] = tested on: LPS-induced microglia activation; assay: Image-based assay of LPS-induced microglia activation (HTS and dose response); format: cell-based, rat; conditions: for LPS % inhibition / inhibition at 10 µM: primary microglia HTS, LPS stimulation; for inhibition at 10 µM: Rattus norvegicus, Microglia, read-out: LPS % inhibition
primary rat microglia [5] = assay: Cell toxicity (dead cells, size <150 μm2) in coated fibrin (cFib) assay; conditions: for IC50: read-out: Cell Toxicity IC50 (uM) [cFib assay]; for Fibrin % cell toxicity: primary microglia HTS, fibrin stimulation, decreased size (<150 μm^2) as marker of toxicity;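 as to Fibrin % cell toxicity: share of dead cells sized under 150 µm2 at 10 µM in fibrin-stimulated microglia HTS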
[6] = HTS of 1907 compounds, quadrant by fibrin and LPS inhibition
[7] = hit classification in microglia HTS
[8] = quadrant by fibrin and LPS inhibition in HTS of 1907 compounds
[9] = Table 1, dose response 0.001-20 μM, triplicates, primary rat microglia, 48 h, read-out: Fibrin IC50
[10] = Table 3, read-out: Fibrin IC50 (uM) (Suppl. Table 7)
[11] = dose response, fibrin-induced microglia activation, read-out: Fibrin IC50
[12] = fibrin-induced microglia activation, dose response, read-out: Fibrin IC50 (uM) (Suppl. Table 7)
[13] = increased cell size (>800 μm^2) as marker of activation
[14] = LPS-induced microglia activation, dose response, read-out: LPS IC50 (uM) (Suppl. Table 7)
[15] = Table 1, dose response 0.001-20 μM, triplicates, primary rat microglia, 48 h, read-out: LPS IC50
[16] = Table 3, read-out: LPS IC50 (uM) (Suppl. Table 7)
[17] = dose response, LPS-induced microglia activation, read-out: LPS IC50
[18] = 48 h, increased cell size (>800 μm^2) as marker of activation

O=C1[O][Pt]2([NH][C@@H]3CCCC[C@H]3[NH]2)[O]C1=O [Oxaliplatin, reference compound]
Hit [1]: HIT (Hits were defined as molecules that exhibited greater than 50% inhibition of either fibrin or LPS activation)
Quadrant (FIG. 5b) [1, 6]: Q3
Quadrant (FIG. 5b) ([1]; Table 1, screen at 10 μM): Q3
Cherry-picked Hit (Suppl. Table 7) ([1]; Table 3): HIT (Hits were defined as molecules that exhibited greater than 50% inhibition of either fibrin or LPS activation)
Quadrant (FIG. 5b) ([1]; Table 3, screen at 10 μM): Q3
Cherry-picked Hit (Suppl. Table 7) [1, 7]: HIT (Hits were defined as molecules that exhibited greater than 50% inhibition of either fibrin or LPS activation)
Quadrant (FIG. 5b) [1, 8]: Q3
Quadrant (FIG. 5b) ([1]; quadrant by fibrin and LPS inhibition, HTS at 10 μM): Q3
IC50 (primary rat microglia [2]; LPS assay): > 20 µM
IC50 (primary rat microglia [2]; Table 3): > 20 µM
IC50 [3, 9]: 5 µM
IC50 [3, 10]: 5 µM
IC50 [3, 11]: 5 µM
IC50 [3, 12]: 5 µM
Fibrin % inhibition ([3]; compounds at 10 μM): 66%
Fibrin % inhibition [3, 13]: 96%
IC50 [4, 14]: 15 µM
IC50 [4, 15]: 15 µM
IC50 [4, 16]: 15 µM
IC50 [4, 17]: 15 µM
LPS % inhibition ([4]; compounds at 10 μM): 21%
LPS % inhibition [4, 13]: 41%
IC50 (primary rat microglia [5]; Table 3): > 20 µM
IC50 (primary rat microglia [5]; cFib assay): > 20 µM

O=C(O)CCc1nc(-c2ccccc2)c(-c2ccccc2)o1 [Oxaprozin]
Quadrant (FIG. 5b) [1, 8]: Q4
LPS % cell toxicity (primary rat microglia [2]): 1%
inhibition at 10 µM [3, 13]: 0%
inhibition at 10 µM [4, 18]: 15%
Fibrin % cell toxicity (primary rat microglia [5]): 1%

NC(=O)N1c2ccccc2CC(=O)c2ccccc21 [Oxcarbazepine, Trileptal]
Quadrant (FIG. 5b) [1, 8]: Q4
LPS % cell toxicity (primary rat microglia [2]): 0%
Fibrin % inhibition [3, 13]: 3%
LPS % inhibition [4, 13]: 35%
Fibrin % cell toxicity (primary rat microglia [5]): 1%

CCN(CC)CCOCCOC(=O)C(CC)(CC)c1ccccc1 [Oxeladin]
Quadrant (FIG. 5b) [1, 8]: Q4
LPS % cell toxicity (primary rat microglia [2]): 0%
inhibition at 10 µM [3, 13]: -27%
inhibition at 10 µM [4, 18]: 6%
Fibrin % cell toxicity (primary rat microglia [5]): 1%

CN(C(=O)CN(CCO)CC(=O)N(C)C(C)(C)Cc1ccccc1)C(C)(C)Cc1ccccc1 [Oxethazaine]
Quadrant (FIG. 5b) [1, 8]: Q4
LPS % cell toxicity (primary rat microglia [2]): 0%
inhibition at 10 µM [3, 13]: 25%
inhibition at 10 µM [4, 18]: 42%
Fibrin % cell toxicity (primary rat microglia [5]): 1%

COC(=O)Nc1nc2ccc([S+]([O-])c3ccccc3)cc2[nH]1 (centres unmarked) [Oxfendazole]
Quadrant (FIG. 5b) [1, 8]: Q4
LPS % cell toxicity (primary rat microglia [2]): 1%
inhibition at 10 µM [3, 13]: 10%
inhibition at 10 µM [4, 18]: 20%
Fibrin % cell toxicity (primary rat microglia [5]): 0%

NCCc1cc(O)c(O)cc1O [Oxidopamine Hydrochloride]
Quadrant (FIG. 5b) [1, 8]: Q4
LPS % cell toxicity (primary rat microglia [2]): 0%
inhibition at 10 µM [3, 13]: 1%
inhibition at 10 µM [4, 18]: 19%
Fibrin % cell toxicity (primary rat microglia [5]): 0%

O=C(O)c1ccc[n+]([O-])c1 [Oxiniacic Acid]
Quadrant (FIG. 5b) [1, 8]: Q4
LPS % cell toxicity (primary rat microglia [2]): 0%
inhibition at 10 µM [3, 13]: -6%
inhibition at 10 µM [4, 18]: 12%
Fibrin % cell toxicity (primary rat microglia [5]): 1%

CCCOc1ccc2[nH]c(NC(=O)OC)nc2c1 [Oxybendazole, reference compound]
Hit [1]: HIT (Hits were defined as molecules that exhibited greater than 50% inhibition of either fibrin or LPS activation)
Quadrant (FIG. 5b) [1, 6]: Q3
Quadrant (FIG. 5b) ([1]; Table 1, screen at 10 μM): Q3
Cherry-picked Hit (Suppl. Table 7) ([1]; Table 3): HIT (Hits were defined as molecules that exhibited greater than 50% inhibition of either fibrin or LPS activation)
Quadrant (FIG. 5b) ([1]; Table 3, screen at 10 μM): Q3
Cherry-picked Hit (Suppl. Table 7) [1, 7]: HIT (Hits were defined as molecules that exhibited greater than 50% inhibition of either fibrin or LPS activation)
Quadrant (FIG. 5b) [1, 8]: Q3
LPS % cell toxicity (primary rat microglia [2]): 1%
IC50 (primary rat microglia [2]; LPS assay): > 20 µM
IC50 (primary rat microglia [2]; Table 3): > 20 µM
Fibrin Selectivity [3]: 2
Fibrin Selectivity (LOG10) [3]: 0.22
IC50 [3, 9]: 7 µM
IC50 [3, 10]: 7 µM
IC50 [3, 11]: 7 µM
IC50 [3, 12]: 7 µM
Fibrin % inhibition [3, 13]: 78%
IC50 [4, 14]: 12 µM
IC50 [4, 15]: 12 µM
IC50 [4, 16]: 12 µM
IC50 [4, 17]: 12 µM
LPS % inhibition [4, 13]: 15%
Fibrin % cell toxicity (primary rat microglia [5]): 2%
IC50 (primary rat microglia [5]; Table 3): > 20 µM
IC50 (primary rat microglia [5]; cFib assay): > 20 µM

COc1ccc(C(=O)c2ccccc2)c(O)c1 [Oxybenzone]
Quadrant (FIG. 5b) [1, 8]: Q4
LPS % cell toxicity (primary rat microglia [2]): 0%
inhibition at 10 µM [3, 13]: -15%
inhibition at 10 µM [4, 18]: 12%
Fibrin % cell toxicity (primary rat microglia [5]): 0%

CCCCOc1cc(C(=O)OCCN(CC)CC)ccc1N [Oxybuprocaine]
Quadrant (FIG. 5b) [1, 8]: Q4
LPS % cell toxicity (primary rat microglia [2]): 0%
inhibition at 10 µM [3, 13]: 7%
inhibition at 10 µM [4, 18]: 11%
Fibrin % cell toxicity (primary rat microglia [5]): 1%

Cc1cc(C(C)(C)C)c(O)c(C)c1CC1=NCCN1 [Oxymetazoline]
Quadrant (FIG. 5b) [1, 8]: Q4
LPS % cell toxicity (primary rat microglia [2]): 0%
inhibition at 10 µM [3, 13]: -13%
inhibition at 10 µM [4, 18]: 20%
Fibrin % cell toxicity (primary rat microglia [5]): 1%

C[C@]12C/C(=C/O)C(=O)C[C@@H]1CC[C@@H]1[C@@H]2CC[C@@]2(C)[C@H]1CC[C@]2(C)O [Oxymetholone]
Quadrant (FIG. 5b) [1, 8]: Q4
LPS % cell toxicity (primary rat microglia [2]): 0%
inhibition at 10 µM [3, 13]: -18%
inhibition at 10 µM [4, 18]: -7%
Fibrin % cell toxicity (primary rat microglia [5]): 1%

CN1CCCN=C1COC(=O)C(O)(c1ccccc1)C1CCCCC1 (centres unmarked) [Oxyphencyclimine]
Quadrant (FIG. 5b) [1, 8]: Q4
LPS % cell toxicity (primary rat microglia [2]): 0%
inhibition at 10 µM [3, 13]: 15%
inhibition at 10 µM [4, 18]: 11%
Fibrin % cell toxicity (primary rat microglia [5]): 1%

CC[N+](C)(CC)CCOC(=O)C(O)(c1ccccc1)C1CCCCC1 (centres unmarked) [Oxyphenonium]
Quadrant (FIG. 5b) [1, 8]: Q4
LPS % cell toxicity (primary rat microglia [2]): 1%
inhibition at 10 µM [3, 13]: -14%
inhibition at 10 µM [4, 18]: 30%
Fibrin % cell toxicity (primary rat microglia [5]): 1%

Cc1ccc(O)cc1 [P-Cresol]
Quadrant (FIG. 5b) [1, 8]: Q4
LPS % cell toxicity (primary rat microglia [2]): 0%
Fibrin % inhibition [3, 13]: −15%
LPS % inhibition [4, 13]: 15%
Fibrin % cell toxicity (primary rat microglia [5]): 0%

NCCC(O)(P(=O)(O)O)P(=O)(O)O [Pamidronate]
Quadrant (FIG. 5b) [1, 8]: Q4
LPS % cell toxicity (primary rat microglia [2]): 0%
inhibition at 10 µM [3, 13]: 0%
inhibition at 10 µM [4, 18]: -5%
Fibrin % cell toxicity (primary rat microglia [5]): 1%

CC(C)(CO)C(O)C(=O)NCCCO (centres unmarked) [Panthenol]
Quadrant (FIG. 5b) [1, 8]: Q4
LPS % cell toxicity (primary rat microglia [2]): 0%
inhibition at 10 µM [3, 13]: -32%
inhibition at 10 µM [4, 18]: 6%
Fibrin % cell toxicity (primary rat microglia [5]): 1%

COc1ccnc(C[S+]([O-])c2nc3cc(OC(F)F)ccc3[n-]2)c1OC.[Na+] (centres unmarked) [Pantoprazole, Pantoprazole Sodium Salt]
Quadrant (FIG. 5b) [1, 8]: Q4
LPS % cell toxicity (primary rat microglia [2]): 0%
Fibrin % inhibition [3, 13]: −8%
LPS % inhibition [4, 13]: −1%
Fibrin % cell toxicity (primary rat microglia [5]): 0%

COc1ccc(Cc2nccc3cc(OC)c(OC)cc23)cc1OC [Papaverine]
Quadrant (FIG. 5b) [1, 8]: Q4
LPS % cell toxicity (primary rat microglia [2]): 0%
inhibition at 10 µM [3, 13]: 12%
inhibition at 10 µM [4, 18]: 27%
Fibrin % cell toxicity (primary rat microglia [5]): 0%

NC(=O)NC(=O)Cc1ccccc1 [Phenacemide]
Quadrant (FIG. 5b) [1, 8]: Q1
LPS % cell toxicity (primary rat microglia [2]): 1%
inhibition at 10 µM [3, 13]: -9%
inhibition at 10 µM [4, 18]: 66%
Fibrin % cell toxicity (primary rat microglia [5]): 1%

CC[C@H](C)CCCCC(=O)N[C@@H](CCN)C(=O)N[C@H](C(=O)N[C@@H](CCN)C(=O)N[C@H]1CCNC(=O)[C@H]([C@@H](C)O)NC(=O)[C@H](CCN)NC(=O)[C@H](CCN)NC(=O)[C@H](CC(C)C)NC(=O)[C@@H](Cc2ccccc2)NC(=O)[C@H](CCN)NC1=O)[C@@H](C)O [Polymyxin B1] (X1-[Dab]T[Dab][Dab][Dab][dF]L[Dab][Dab]T; lactam 4-C)
Quadrant (FIG. 5b) [1, 8]: Q1
LPS % cell toxicity (primary rat microglia [2]): 1%
Fibrin % inhibition [3, 13]: −21%
LPS % inhibition [4, 13]: 60%
Fibrin % cell toxicity (primary rat microglia [5]): 1%
